Key:
[1] = Protective index, ratio of ID50 for locomotory activity to ED50 for antinociceptive activity in orally dosed ddY mouse; format: toxicity, organism-based; details: in vivo, po
[2] = Effect on spontaneous locomotory activity in orally dosed ddY mouse measured for 1 hr; format: ADME, organism-based; details: in vivo, po
Mus musculus [3] = assay: Antinociceptive activity in orally dosed ddY mouse model assessed as inhibition of acetic acid-induced writhes pretreated for 30 mins followed by acetic acid challenge and measured for 25 mins post acetic acid challenge; format: functional; details: po, 55 min
hERG (KCNH2) [4] = target: T1, hERG (KCNH2) (Homo sapiens, UniProt Q12809); assay: Inhibition of human ERG expressed in HEK293 cells at 30 uM at - 80 mV holding potential by whole cell patch clamp assay relative to control; format: cell-based; details: HEK293 cells expressing human ERG
[5] = Metabolic stability in CD1 mouse liver microsomes assessed as compound remaining measured after 0.5 hrs by LC/MS-MS analysis; format: ADME, Microsome; details: read-out: Stabilty
[6] = 1-Octanol-PBS buffer distribution coefficient, log D of compound at pH 7.4; format: physicochemical
Mus musculus [7] = assay: Antinociceptive activity in ddY mouse model assessed as inhibition of acetic acid-induced writhes at 30 mg/kg, po pretreated for 30 mins followed by acetic acid challenge and measured for 25 mins post acetic acid challenge; format: functional; details: 55 min
hERG (KCNH2) [8] = target: T1, hERG (KCNH2); assay: Inhibition of human ERG expressed in HEK293 cells at 10 uM at - 80 mV holding potential by whole cell patch clamp assay relative to control; format: cell-based; details: HEK293 cells expressing human ERG
[9] = Cmax in ddY mouse at 10 mg/kg, po by LC-MS/MS method; format: ADME, organism-based; set-up: route oral, dose 10 mg/kg; details: in vivo
[10] = AUC in ddY mouse at 10 mg/kg, po by LC-MS/MS method; format: ADME, organism-based; set-up: dose 10 mg/kg; details: in vivo
Mu-type opioid receptor [11] = target: T2, Mu-type opioid receptor (Homo sapiens, UniProt P35372); assay: Agonist activity at human MOR expressed in CHOK1 cells assessed as inhibition of forskolin-stimulated cAMP accumulation by FRET assay relative to DAMGO; format: cell-based; details: CHO-K1, human
Mu-type opioid receptor [12] = target: T2, Mu-type opioid receptor; assay: Displacement of [3H]diprenorphine from human MOR incubated for 1 hr
Mus musculus [13] = assay: Analgesic activity in formalin-induced orally dosed ddY mouse model of hyperalgesia assessed as time spent in paw licking during acute phase pretreated for 30 mins followed by formalin challenge and measured for 10 mins; format: functional; details: po, 0.5 h
[14] = Half life in ddY mouse at 10 mg/kg, po by LC-MS/MS method; format: ADME, organism-based; details: in vivo

T1 sequence (Q12809 whole entry): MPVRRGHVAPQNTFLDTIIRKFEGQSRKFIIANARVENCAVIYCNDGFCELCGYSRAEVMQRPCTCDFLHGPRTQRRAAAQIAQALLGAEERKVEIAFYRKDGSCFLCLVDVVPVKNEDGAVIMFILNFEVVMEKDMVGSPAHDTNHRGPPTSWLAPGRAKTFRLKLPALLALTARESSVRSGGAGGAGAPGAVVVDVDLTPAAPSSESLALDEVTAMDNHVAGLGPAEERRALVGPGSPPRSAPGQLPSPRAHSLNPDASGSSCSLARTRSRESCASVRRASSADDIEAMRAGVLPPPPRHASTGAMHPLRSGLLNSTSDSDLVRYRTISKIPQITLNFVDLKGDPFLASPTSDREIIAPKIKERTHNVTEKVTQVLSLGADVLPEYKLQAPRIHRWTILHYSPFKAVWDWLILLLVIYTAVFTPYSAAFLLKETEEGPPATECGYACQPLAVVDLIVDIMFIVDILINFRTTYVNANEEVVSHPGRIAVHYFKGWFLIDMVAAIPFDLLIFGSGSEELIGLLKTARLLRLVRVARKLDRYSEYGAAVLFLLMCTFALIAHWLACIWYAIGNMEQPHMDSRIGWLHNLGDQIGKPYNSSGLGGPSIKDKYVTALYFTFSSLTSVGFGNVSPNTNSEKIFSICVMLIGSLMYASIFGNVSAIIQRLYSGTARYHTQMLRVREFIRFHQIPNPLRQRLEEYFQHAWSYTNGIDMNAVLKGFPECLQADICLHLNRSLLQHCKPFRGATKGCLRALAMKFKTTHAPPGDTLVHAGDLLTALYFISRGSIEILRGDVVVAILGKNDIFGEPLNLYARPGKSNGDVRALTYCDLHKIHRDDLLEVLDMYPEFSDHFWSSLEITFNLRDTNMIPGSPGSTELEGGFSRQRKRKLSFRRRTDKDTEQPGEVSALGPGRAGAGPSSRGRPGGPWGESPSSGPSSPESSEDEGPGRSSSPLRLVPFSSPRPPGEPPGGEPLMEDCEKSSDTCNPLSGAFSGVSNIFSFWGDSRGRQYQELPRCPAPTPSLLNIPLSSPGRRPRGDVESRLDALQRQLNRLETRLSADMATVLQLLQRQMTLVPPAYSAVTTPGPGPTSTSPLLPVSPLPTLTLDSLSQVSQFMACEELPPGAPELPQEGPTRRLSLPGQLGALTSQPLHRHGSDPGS
T2 sequence (P35372 whole entry): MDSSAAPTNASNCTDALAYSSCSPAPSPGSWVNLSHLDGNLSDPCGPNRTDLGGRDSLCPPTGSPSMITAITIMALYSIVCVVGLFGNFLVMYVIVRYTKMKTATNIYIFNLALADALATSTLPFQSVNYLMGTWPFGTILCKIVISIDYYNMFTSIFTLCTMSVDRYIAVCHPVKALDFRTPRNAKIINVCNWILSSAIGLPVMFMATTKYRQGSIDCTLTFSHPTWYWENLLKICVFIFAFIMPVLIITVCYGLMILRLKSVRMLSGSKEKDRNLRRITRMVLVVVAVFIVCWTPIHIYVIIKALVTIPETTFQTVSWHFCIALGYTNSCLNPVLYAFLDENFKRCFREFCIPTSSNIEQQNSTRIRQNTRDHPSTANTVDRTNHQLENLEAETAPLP

Compound	selectivity ratio [1]	ID50 [2] [mg/kg]	ED50 (Mus musculus [3]) [mg/kg]	inhibition at 30 µM (hERG (KCNH2) [4]) [%]	remaining at 0.5 h [5] [%]	logD [6]	inhibition in vivo at 30 mg/kg (Mus musculus [7]) [%]	inhibition at 10 µM (hERG (KCNH2) [8]) [%]	Cmax [9] [nM]	AUC [10] [µM·h]	Emax (Mu-type opioid receptor [11]) [%]	EC50 (Mu-type opioid receptor [12]) [µM]	ED50 (Mus musculus [13]) [mg/kg]	half-life [14] [h]
CN1C(=O)c2[nH]c3ccccc3c2CN2CC[C@H]1C2	2.1	19	8.7											
CN1C(=O)c2cccc(F)c2CN2C[C@@H]1C1(CC1)C2			14	0	79	0.9								
O=C1c2ccccc2CN2CCCN1CC2					78	0.6	24	-1						
CN1C(=O)c2ccccc2CN2CC[C@H]1C2	> 3.4	> 85	25		82	0.3	97	5	3740	7.79				
CC1c2ccccc2C(=O)N(C)[C@H]2CCN1C2 (some centres undefined)					81	0.3	31	6						
CN1C(=O)c2ccc(F)cc2CN2C[C@@H]1C1(CC1)C2	10.3	66	6.4	2	83	0.9			1470	1.74	18	> 100	16	1.9
CN1C(=O)c2c(F)cccc2CN2C[C@@H]1C1(CC1)C2			35	0	79	1								
C/C=C1/CN2CC[C@H]1C(=O)c1[nH]c3ccccc3c1C2	2.2	69	32											
CCN1C(=O)c2ccccc2CN2CC[C@H]1C2					80	0.4	45	6						
CC12CCN(CC1)Cc1c([nH]c3ccccc13)C2=O	2.1	16	7.8											
CN1C(=O)c2ccccc2CN2CCC[C@H]1C2			23		62	0.3	77	5	1970	1.97				
CN1C(=O)c2ccccc2CN2C[C@@H]1C1(CC1)C2			15	15	81	0.5	84	14	5240	5.24				
CN1C(=O)c2cc(F)ccc2CN2C[C@@H]1C1(CC1)C2			36	14	81	0.9								

From ChEMBL document CHEMBL4665855, “Discovery of DS34942424: An orally potent analgesic without mu opioid receptor agonist activity” (Bioorg Med Chem, 2020)
